Measurements reported in patent EP2511272B1, “Synthetic analogues of abscisic acid with anti-inflammatory and insulin release stimulation effects on human cells” (Universita' degli Studi di Genova, priority 2011, dated 2012).
Read-outs that look alike come from different tables or passages of the source.

What was measured:
human granulocytes [1] = assay: Inhibition of ABA-induced phagocytosis of fluorescent beads; assay type: cell-based
Method: Human granulocytes, after ON incubation in complete DMEM/F12, were resuspended at 1x10^6 cells/100 µl in HBSS.
For the experiment, fluorescent polystyrene (carboxylate-modified polystyrene) beads were used, of 1 µm of diameter (Sigma-Aldrich) A volume of 100 µl of cellular suspension was subdivided into eppendorf, in which a 10 minutes long preincubation was carried out with 20 µM ABA, either alone, or together with increasing concentrations of compound prepared according to example 1.
After the end of the preincubation, the beads were added for 5, 10 and 30 minutes. For each experimental point, 2.5 x 10^5 beads were used.
At the end of the incubations, the cells were collected by centrifugation (200xg for 10 seconds), were washed with 1 ml of HBSS at 0 °C and were centrifuged once again at 200xg for 10 seconds. The supernatant was discarded and the cells were resuspended in 350 µl of HBSS and added to 96-well plates of white colour (100 µl per well).
The increase in fluorescence was measured with Fluostar OPTIMA fluorometer (λexc: 485; λemis: 520).
The experiment was carried out three times in triplicate.
Human grnulocytes were preincubated for 10 minutes at 20 °C with 20 µM ABA, either alone or in the presence of compound prepared according to example 1, at various concentrations. In order to evaluate the phagocytic capability of granulocytes, fluorescent beads were added and, after 15 and 30 minutes, the fluorescence absorbed by the cells was determined as described in Materials and Methods The results were expressed as the average of the results obtained from three independent experiments, from which the background value, obtained from the control, had been subtracted (TABLE 5). TABLE 5. Inhibition of phagocitosis, in human granulocytes stimulated with ABA, by compound prepared according to example 1.

human monocytes = assay: Inhibition of ABA-induced PGE2 production in monocytes (EIA); assay type: cell-based; details: 6 h
Method: Monocytes, 25 x 10^6/Petri in complete RPMI, were incubated for 6 h with 100 nM ABA either alone, or in the presence of compound prepared according to example 1, at a concentration of 1 µM. At the end of the incubation, the substrate was centrifuged at 17,000xg for 5 minutes and the concentration of PGE2 was quantitated by using the kit: PGE2 monoclonal EIA kit (Cayman Chemical Co.), following the instructions suppled by the manufacturer.
The cells were lysed in 200 µl of deionized water in order to quantitate total proteins by the Bradford method (Bradford, M. M., 1976), after thre preliminary generation of a reference standard curve, obtained with different concentrations of bovine serum albumin. The spectrophotometric measurements were carried out at wavelength of 595 nm.
The experiment was carried out three times in sextuplicate.
The results were expressed as the average of the results from three independent experiments, as referred to control value. […] TABLE 7. Inhibition of PGE2 production, in human monocytes stimulated with ABA, by compound prepared according to example 1

[2] = system: Raw 264.7 (murine monocitic leukemia); assay: Cytotoxicity, CellTiter 96 AQueous One Solution assay; assay type: cell-based; details: 24 hrs
human granulocytes [3] = assay: as above; assay type: cell-based; details: 24 hrs
[4] = Stability after extraction from H2O and HBSS (HPLC-MS); assay type: physicochemical; details: for Stability after extraction (amount found): 10 µM; for degradation: 0 vs 24 hrs
Method: Compound prepared according to example 1 was tested for stability at 10 µM concentration in deionized water, phosphate buffer (HBSS with calcium and magnesium) and human plasma for 0 and after 24 hrs at 37 °C, by carrying out the extraction as described in Materials and Methods, and subsequent HPLC-MS analysis for the analyte of interest.
For stability tests, to 2 ml of deionized water, HBSS or human plasma, the compound of example 1 (10 µM) and 5,000 cpm of [^3H]ABA were added, for the purpose of evaluating the recovery after the extraction procedure. The so prepared samples were exctracted at time 0 and after 24 hrs.
For the extraction, 8 ml was added of distilled methanol (methanol/water : 80/20 vol/vol) and the mixture was kept at -20 °C overnight.
The following day the samples were centrifuged at 800xg for 10 minutes and the supernatant was concentrated to dryness by Rotavapor. The reconstituted aqueous solution was acidified at pH 2.6 with 10 % trifluoroacetric acid (TFA) and was extracted three times with diethyl ether (diethyl ether/water: 1:1 vol/vol).
The ethereal phase was finally removed by Rotavapor and the extraxt was resuspended in 1 ml of HBSS; 8 µl of such solution was analysed by HPLC-MS, and 100 µl was used for radioactivity counting by a Packard β-counter in order to compute extraction recovery.
The HPLC-MS system used consists of an Agilent 1100 capillary chromatograph equipped with a diode array detector (DAD) and coupled with an Agilent 1100 series LC/MSD Trap mass spectometer with orthogonal electrospray source and a ionic-trap analyser.
The detection wavelength was 254 nm and the MS spectrum was recorded in negative ions mode in an m/z range of 50-300.
The amount of compound of example 1 in the extracts and supernatants was computed as the area of the peak under the extracted ion current m/z 279.3, normalized for the ionization efficiency of internal standard (hexadeuterated ABA) used for HPLC-MS analysis. Furthermore, the concentration was computed using the recovery rates obtained from the evaluation of counts per minute (cpm) of extracted [^3H]ABA.

With CC1=CC(=O)CC(C)(C)C1(O)/C=C/C(C)=C\C(=O)O (racemic) [ABA, (2Z,4E)-5-(1-hydroxy-2,6,6-trimethyl-4-oxo-2-cyclohexen-1-yl)-3-methyl-2,4-pentadienoic acid, reference compound] the “Increase in fluorescence ±SD (@ 15 min)” value (human granulocytes [1]; ABA 20 µM alone, 15 min) was 909±47, the “Increase in fluorescence ±SD (@ 30 min)” value (human granulocytes [1]; ABA 20 µM alone, 30 min) was 2476±50 and the “Relative amount of PGE2 as referred to control ± SD” value (human monocytes; ABA 100 nM alone) was 2,2±0,2.
Work on CC(=C/C(=O)O)/C=C/C1(O)C(C)(C)CC(=O)C2OC21C (stereo not drawn) [Example 1, 2'α,3'α-dihydro-2'α,3'α-epoxyabscisic acid] yielded a number of cells ([2]; 1 nM) of 306321, a vitality % ([2]; 1 nM) of 100% and a number of cells ([2]; 10 nM) of 30555. It also gave a vitality % ([2]; 10 nM) of 100%, a number of cells ([2]; 1 µM) of 274987 and a vitality % ([2]; 1 µM) of 90%. The number of cells ([2]; 100 µM) was 290264, the vitality % ([2]; 100 µM) was 95% and the “Increase in fluorescence ±SD (@ 15 min)” value (human granulocytes [1]; ABA 20 µM + compound 0.5 nM, 15 min) was 210±2. The “Increase in fluorescence ±SD (@ 30 min)” value (human granulocytes [1]; ABA 20 µM + compound 0.5 nM, 30 min) was 1423±3, the “Increase in fluorescence ±SD (@ 15 min)” value (human granulocytes [1]; ABA 20 µM + compound 10 nM, 15 min) was 148±2 and the “Increase in fluorescence ±SD (@ 30 min)” value (human granulocytes [1]; ABA 20 µM + compound 10 nM, 30 min) was 515±10. For the same molecule, the “Increase in fluorescence ±SD (@ 15 min)” value (human granulocytes [1]; ABA 20 µM + compound 1 µM, 15 min) was 17, the “Increase in fluorescence ±SD (@ 30 min)” value (human granulocytes [1]; ABA 20 µM + compound 1 µM, 30 min) was 0 and the inhibition at 0.0005 µM (human granulocytes [1]; Homo sapiens, 0.25 h, ABA 20 µM + compound 0.5 nM, 15 min, read-out: Inhibition % (@ 15 min)) was 77%. The inhibition at 0.01 µM (human granulocytes [1]; Homo sapiens, 0.25 h, ABA 20 µM + compound 10 nM, 15 min, read-out: Inhibition % (@ 15 min)) was 84%, the inhibition at 1 µM (human granulocytes [1]; Homo sapiens, 0.25 h, ABA 20 µM + compound 1 µM, 15 min, read-out: Inhibition % (@ 15 min)) was 98% and the inhibition at 0.0005 µM (human granulocytes [1]; Homo sapiens, 0.5 h, ABA 20 µM + compound 0.5 nM, 30 min, read-out: Inhibition % (@ 30 min)) was 43%. It also gave an inhibition at 0.01 µM (human granulocytes [1]; Homo sapiens, 0.5 h, ABA 20 µM + compound 10 nM, 30 min, read-out: Inhibition % (@ 30 min)) of 80%, an inhibition at 1 µM (human granulocytes [1]; Homo sapiens, 0.5 h, ABA 20 µM + compound 1 µM, 30 min, read-out: Inhibition % (@ 30 min)) of 100% and an IC50 (human granulocytes [1]; Homo sapiens, phagocytosis induced by 20 µM ABA) of ~0.5 nM. The number of cells (human granulocytes [3]; 1 nM) was 151138, the vitality % (human granulocytes [3]; 1 nM) was 89% and the number of cells (human granulocytes [3]; 10 nM) was 191138. The vitality % (human granulocytes [3]; 10 nM) was 100%, the number of cells (human granulocytes [3]; 1 µM) was 132555 and the vitality % (human granulocytes [3]; 1 µM) was 83%. The number of cells (human granulocytes [3]; 100 µM) was 175388, the vitality % (human granulocytes [3]; 100 µM) was 96% and the “Relative amount of PGE2 as referred to control ± SD” value (human monocytes; ABA 100 nM + compound 1 µM) was 1,0±0,1. The inhibition at 1 µM (human monocytes; Homo sapiens, Monocyte, ABA 100 nM + compound 1 µM) was 100%, the “Stability after extraction (amount found)” value (shortened to “Stability after extraction”) ([4]; H2O, 0 hr, equals extraction yield, listed as compound of example 1) was 100% and the “Stability after extraction” value ([4]; H2O, 0 hr, equals extraction yield, listed as compound prepared according to example 1) was 100%. The “Stability after extraction” value ([4]; H2O, 24 hrs at 37 °C) was 86%, the “Stability after extraction” value ([4]; HBSS, 0 hr, equals extraction yield, listed as compound of example 1) was 76% and the “Stability after extraction” value ([4]; HBSS, 0 hr, equals extraction yield, listed as compound prepared according to example 1) was 76%. The “Stability after extraction” value ([4]; HBSS, 24 hrs at 37 °C) was 73%, the degradation ([4]; in phosphate buffer) was 3% and the degradation ([4]; in water) was 14%.
